# Reference: patent US20150328250A1, “Animal Food Composition and Method” (HILL'S PET NUTRITION, INC., priority 2012, published 2015)
# How the values were obtained:
# [1] = Chitosan-controlled release of zinc through dialysis tubing, dialysate zinc measured by ICP-OES; type: physicochemical
# Procedure: (§1) The chitosan-controlled release of zinc was investigated. 0.1% solutions of chitosan were prepared. Zinc acetate was added to each of these solutions to provide a zinc ion concentration of 100 ppm or 200 ppm. The pH of the solutions was adjusted to 2, 5 or 7. Each solution was left at room temperature for 72 hours while gently mixing to allow for complete chitosan dissolution. Solutions containing zinc alone acted as controls for the experiment.
# (§2) Each solution was subsequently transferred to dialysis tubing and placed in a jar containing deionized water. Stirring was carried out continuously throughout the duration of dialysis. Evaporative loss was minimized by placing a sealing wrap over the jar. A sample of the dialysate was removed at regular intervals and the zinc ion concentration was measured by inductively coupled plasma optical emission spectrometry (ICP-OES).
# [2] = Amount of zinc bound to chitosan after 1 hour of dialysis; type: physicochemical
# Procedure: as §1, §2
# The amount of zinc bound to chitosan after 1 hour of dialysis at pH 2, 5 and 7 was also determined After 1 hour of dialysis, the amount of zinc that had been released through the dialysis tubing, in the presence and absence of chitosan, was measured as described above. The amount of zinc released in the presence of chitosan was subtracted from the amount of zinc released in the absence of chitosan to determine the amount of zinc bound to chitosan.
structure (smiles),measurement,setting,value
"CC(=O)[O-].CC(=O)[O-].[Zn+2] [Zinc, Zinc acetate]",average rate of zinc release per hour,"[1]; 100 ppm Zn acetate, pH 2",0.54 mg/h
same,average rate of zinc release per hour,"[1]; 100 ppm Zn acetate, pH 5",1.38 mg/h
same,average rate of zinc release per hour,"[1]; 100 ppm Zn acetate, pH 7",0.85 mg/h
same,Amount of Zn++ released,"[1]; 100 ppm zinc ion, pH 2, 0.00 hrs",0 mg
same,Amount of Zn++ released,"[1]; 100 ppm zinc ion, pH 2, 0.33 hrs",0.25 ± 0.00 mg
same,Amount of Zn++ released,"[1]; 100 ppm zinc ion, pH 2, 0.67 hrs",0.42 ± 0.01 mg
same,Amount of Zn++ released,"[1]; 100 ppm zinc ion, pH 2, 1.00 hrs",0.52 ± 0.01 mg
same,Amount of Zn++ released,"[1]; 100 ppm zinc ion, pH 2, 1.33 hrs",0.75 ± 0.01 mg
same,Amount of Zn++ released,"[1]; 100 ppm zinc ion, pH 2, 1.67 hrs",0.90 ± 0.02 mg
same,Amount of Zn++ released,"[1]; 100 ppm zinc ion, pH 2, 2.00 hrs",1.01 ± 0.02 mg
same,Amount of Zn++ released,"[1]; 100 ppm zinc ion, pH 2, 2.50 hrs",1.40 ± 0.01 mg
same,Amount of Zn++ released,"[1]; 100 ppm zinc ion, pH 2, 3.00 hrs",1.66 ± 0.02 mg
same,Amount of Zn++ released,"[1]; 100 ppm zinc ion, pH 5, 0.00 hrs",0 mg
same,Amount of Zn++ released,"[1]; 100 ppm zinc ion, pH 5, 0.33 hrs",0.57 ± 0.01 mg
same,Amount of Zn++ released,"[1]; 100 ppm zinc ion, pH 5, 0.67 hrs",1.15 ± 0.02 mg
same,Amount of Zn++ released,"[1]; 100 ppm zinc ion, pH 5, 1.00 hrs",1.68 ± 0.02 mg
same,Amount of Zn++ released,"[1]; 100 ppm zinc ion, pH 5, 1.33 hrs",2.36 ± 0.07 mg
same,Amount of Zn++ released,"[1]; 100 ppm zinc ion, pH 5, 1.67 hrs",2.86 ± 0.07 mg
same,Amount of Zn++ released,"[1]; 100 ppm zinc ion, pH 5, 2.00 hrs",3.14 ± 0.01 mg
same,Amount of Zn++ released,"[1]; 100 ppm zinc ion, pH 5, 2.50 hrs",3.69 ± 0.05 mg
same,Amount of Zn++ released,"[1]; 100 ppm zinc ion, pH 5, 3.00 hrs",4.00 ± 0.00 mg
same,Amount of Zn++ released,"[1]; 100 ppm zinc ion, pH 7, 0.00 hrs",0 mg
same,Amount of Zn++ released,"[1]; 100 ppm zinc ion, pH 7, 0.33 hrs",0.30 ± 0.00 mg
same,Amount of Zn++ released,"[1]; 100 ppm zinc ion, pH 7, 0.67 hrs",0.71 ± 0.15 mg
same,Amount of Zn++ released,"[1]; 100 ppm zinc ion, pH 7, 1.00 hrs",0.82 ± 0.00 mg
same,Amount of Zn++ released,"[1]; 100 ppm zinc ion, pH 7, 1.33 hrs",1.11 ± 0.00 mg
same,Amount of Zn++ released,"[1]; 100 ppm zinc ion, pH 7, 1.67 hrs",1.40 ± 0.01 mg
same,Amount of Zn++ released,"[1]; 100 ppm zinc ion, pH 7, 2.00 hrs",1.78 ± 0.25 mg
same,average rate of zinc release per hour,"[1]; 200 ppm Zn acetate, pH 2",1.58 mg/h
same,average rate of zinc release per hour,"[1]; 200 ppm Zn acetate, pH 5",2.07 mg/h
same,average rate of zinc release per hour,"[1]; 200 ppm Zn acetate, pH 7",1.47 mg/h
same,Amount of Zn++ released,"[1]; 200 ppm zinc ion, pH 2, 0.00 hrs",0 mg
same,Amount of Zn++ released,"[1]; 200 ppm zinc ion, pH 2, 0.33 hrs",0.52 ± 0.00 mg
same,Amount of Zn++ released,"[1]; 200 ppm zinc ion, pH 2, 0.67 hrs",1.07 ± 0.00 mg
same,Amount of Zn++ released,"[1]; 200 ppm zinc ion, pH 2, 1.00 hrs",1.77 ± 0.07 mg
same,Amount of Zn++ released,"[1]; 200 ppm zinc ion, pH 2, 1.33 hrs",2.36 ± 0.01 mg
same,Amount of Zn++ released,"[1]; 200 ppm zinc ion, pH 2, 1.67 hrs",2.90 ± 0.01 mg
same,Amount of Zn++ released,"[1]; 200 ppm zinc ion, pH 2, 2.00 hrs",3.40 ± 0.05 mg
same,Amount of Zn++ released,"[1]; 200 ppm zinc ion, pH 2, 2.50 hrs",4.09 ± 0.01 mg
same,Amount of Zn++ released,"[1]; 200 ppm zinc ion, pH 2, 3.00 hrs",4.59 ± 0.00 mg
same,Amount of Zn++ released,"[1]; 200 ppm zinc ion, pH 5, 0.00 hrs",0 mg
same,Amount of Zn++ released,"[1]; 200 ppm zinc ion, pH 5, 0.33 hrs",0.99 ± 0.00 mg
same,Amount of Zn++ released,"[1]; 200 ppm zinc ion, pH 5, 0.67 hrs",1.91 ± 0.02 mg
same,Amount of Zn++ released,"[1]; 200 ppm zinc ion, pH 5, 1.00 hrs",2.73 ± 0.00 mg
same,Amount of Zn++ released,"[1]; 200 ppm zinc ion, pH 5, 1.33 hrs",3.61 ± 0.00 mg
same,Amount of Zn++ released,"[1]; 200 ppm zinc ion, pH 5, 1.67 hrs",4.25 ± 0.01 mg
same,Amount of Zn++ released,"[1]; 200 ppm zinc ion, pH 5, 2.00 hrs",4.85 ± 0.02 mg
same,Amount of Zn++ released,"[1]; 200 ppm zinc ion, pH 5, 2.50 hrs",5.59 ± 0.01 mg
same,Amount of Zn++ released,"[1]; 200 ppm zinc ion, pH 5, 3.00 hrs",6.13 ± 0.03 mg
same,Amount of Zn++ released,"[1]; 200 ppm zinc ion, pH 7, 0.00 hrs",0 mg
same,Amount of Zn++ released,"[1]; 200 ppm zinc ion, pH 7, 0.33 hrs",0.630 ± 0.00 mg
same,Amount of Zn++ released,"[1]; 200 ppm zinc ion, pH 7, 0.67 hrs",1.21 ± 0.01 mg
same,Amount of Zn++ released,"[1]; 200 ppm zinc ion, pH 7, 1.00 hrs",1.76 ± 0.01 mg
same,Amount of Zn++ released,"[1]; 200 ppm zinc ion, pH 7, 1.33 hrs",2.36 ± 0.02 mg
same,Amount of Zn++ released,"[1]; 200 ppm zinc ion, pH 7, 1.67 hrs",2.88 ± 0.02 mg
same,Amount of Zn++ released,"[1]; 200 ppm zinc ion, pH 7, 2.00 hrs",3.25 ± 0.04 mg
same,Zn++ released through the dialysis tubing,"[2]; 100 ppm pH 2, after 1 hour of dialysis",0.57 mg
same,Zn++ released through the dialysis tubing,"[2]; 100 ppm pH 5, after 1 hour of dialysis",1.62 mg
same,Zn++ released through the dialysis tubing,"[2]; 100 ppm pH 7, after 1 hour of dialysis",0.87 mg
same,Zn++ released through the dialysis tubing,"[2]; 200 ppm pH 2, after 1 hour of dialysis",1.68 mg
same,Zn++ released through the dialysis tubing,"[2]; 200 ppm pH 5, after 1 hour of dialysis",2.54 mg
same,Zn++ released through the dialysis tubing,"[2]; 200 ppm pH 7, after 1 hour of dialysis",1.68 mg
